Measured values taken from patent US20190100725A1, “CELL CULTURE MEDIUM AND CULTURE MEDIUM SUPPLEMENT” (Institute of Biophysics, Chinese Academy of Sciences, priority 2016, published 2019).

Experiments:
Type in all cases: cell-based, human
[1] = test system: hESC line H7; assay: Cardiac differentiation of hESC line H7, FACS of CTNT-positive cells and cardiomyocyte yield; details: for cardiac differentiation efficacy (in words): individual addition of the antioxidant to S12 basal medium
Description: (§1) For small molecule-induced cardiac differentiation, hESC line H7 or hiPSCs were digested with Versene solution into single cells and seeded on VTN-NC-coated, 24-well plates at a density of 2.5-3.0×10^5 cells/well. Y27632 (10 μM) was supplemented on the first day and withdrawn thereafter. Cultures were maintained in E8 medium for 2-3 days until they reached 90% confluence. To initiate cell differentiation (designated as day 0), the medium was changed to S12 medium without insulin. Cells were treated with 4-8 μM CHIR99021 (Tocris, 4423) for 1 day. Then, the medium was replaced with fresh medium without CHIR99021. At day 3, 5 μM IWR-1 (Sigma-Aldrich, 10161) was supplied with fresh medium for 2 days. From day 5, insulin-containing S12 medium was used. Thereafter, the medium was changed every other day (FIG. 1a).
(§2) Cardiomyocytes were digested into single cells with 0.25% trypsin-EDTA (Life Technology, 25200-072) at 37° C. for about 5 min, and washed with buffer B, which contains 0.5% bovine serum albumin (Sigma, A9418-50G) in phosphate-buffered saline (PBS). Then the cells were fixed with 4% paraformaldehyde at room temperature and washed with buffer A, which contains 0.5% bovine serum albumin and 0.1% saponin (Sigma-Aldrich, S7900) in PBS. The cells were then incubated with an anti-human CTNT primary antibody (R&D systems, MAB1874) for 40 min at 4° C. and washed with buffer A, followed by incubation with a goat anti-mouse FITC-conjugated secondary antibody (ZSGB-BIO, ZF-0312) for 40 min at 4° C. Data were collected on FACScalibur (Becton Dickinson) and analyzed with FlowJo software (Treestar).

[2] = test system: hiPSC lines; assay: Cardiac differentiation of hiPSC lines in S12 medium, FACS of CTNT-positive cells; details: for percentage of CTNT-positive cells after glucose deprivation enrichment: 2 days of glucose deprivation (glucose replaced with DL-lactate); for percentage of CTNT-positive cells before glucose deprivation enrichment: hiPSC line XVF 4 in S12 medium, 1 μM, days 5-8
Description: as §1
(§3) For directed differentiation of atrial or ventricular myocytes, 1 μM RA (Sigma-Aldrich, R2625) or 1 μM BMS493 (Tocris, 3509) was added to the differentiating cultures during days 5-8 of differentiation as described previously^9.
as §2

[3] = test system: hiPSC-derived cardiomyocytes; assay: Whole-cell patch clamp classification of AP types in RA- and BMS493-treated cultures
Description: The dissociation method used has been described previously^9. Briefly, 25-30-day-old differentiated cardiomyocyte clusters were washed with a low Ca^2+ solution, and then incubated in 1 mg/mL collagenase II (Life Technology, 17101-015) dissolved in a low Ca^2+ solution for 30-40 min at 37° C. The isolated cells were suspended in S12 medium containing 10% FBS, transferred to 0.1% gelatin-coated glass coverslips, and then maintained in a 5% CO2 incubator at 37° C.
Action potential (AP) and ion channel activities, which are critical for normal functions of cardiomyocytes, were investigated using whole-cell patch clamp technology on single cardiomyocytes. The classification of nodal-, atrial- and ventricular-like APs was based on the AP properties. Particularly, nodal-like AP has a slower maximal upstroke velocity (dV/dt), smaller action potential amplitude (APA), depolarized maximum diastolic potential (MDP), and faster beating rate than those of atrial- and ventricular-like APs. An AP duration at 90%0, of repolarization (APD90) value of 150 ms was used to classify atrial- and ventricular-like APs, because of the significant plateau phase of ventricular AP^21, 22. […] The parameters of the three AP types recorded were also analyzed (FIG. 3c).

[4] = test system: hPSC-derived ventricular-like cardiomyocytes; assay: Perforated whole-cell patch clamp, evoked AP of ventricular-like cardiomyocytes paced at 1 Hz; details: for APA / APD50 / APD90 / MDP / dV/dT: evoked AP, 1 Hz, percentage of untreated cardiomyocytes, mean±SEM
Description: Perforated whole-cell recording was used for pharmacological tests.
Nifedipine (Sigma-Aldrich, N7634) was prepared in DMSO. […] Other chemicals were from Sigma-Aldrich.

[5] = test system: hiPSC line XVF 4; assay: Double immunofluorescence staining of MLC2V and CTNT in 60-day-old cultures
Description: Differentiated cultures were digested with 0.25% trypsin-EDTA, and the cells were plated on 0.1% gelatin-coated coverslips for 5 days to allow full attachment. The coverslips were washed with PBS and fixed in 4% paraformaldehyde for 20 min at 4° C. The fixed cells were then permeabilized with 0.1% Triton X-100 for 20 min at 4° C., and blocked with 10% goat serum (ZSGB-BIO, ZLI-9021) for 1 h at room temperature. Then, the cells were incubated overnight at 4° C. with the following primary antibodies: anti-human CTNT (R&D systems, MAB1874), mouse anti-human α-actinin (Sigma-Aldrich, A7811), mouse anti-human MHC (Abcam, ab15), goat anti-human α-SMA (Abcam, ab5694), mouse anti-human MLC2A (Synaptic Systems, 311011) and rabbit anti-human MLC2V (ProteinTech, 10906-1-AP). Goat anti-mouse 488- (ZSGB-BIO, ZF-0512) or 594-conjugated secondary antibody (ZSGB-BIO, ZF-0513), and goat anti-rabbit 488- (ZSGB-BIO, ZF-0511) or 594-conjugated secondary antibody (ZSGB-BIO, ZF-0516) were used as secondary antibodies. Nuclei were counterstained with 4′,6-diamidino-2-phenylindole (DAPI) (Sigma-Aldrich, D0542). Immunofluorescence images were visualized and recorded using an Olympus microscope system X51 or Olympus LSCM FV1000 (Olympus).

[6] = test system: hiPSC line XVF 4; assay: QPCR of IRX4 and NR2F2 in RA- or BMS493-treated hiPSC cultures; details: 14-day-old cultures; BMS493-treated versus RA-treated
Description: as §3
Total RNA was isolated using RNeasy Plus Mini kit (Qiagen, 74134). One microgram of total RNA was reverse transcribed using the PrimeScript™ RT reagent kit with gDNA eraser (Takara, RR047A). RT-PCR was performed with 2×Taq Mix (CW-BIO, CW0682C) according to the manufacturer's instructions. PCR products were analyzed using 1.5% agarose gel electrophoresis. QPCR was performed in triplicate using the 2×QuantiFast SYBR Green I PCR Master Mix (Qiagen, 204057) on a Rotor Gene 6200 Real-Time PCR Machine (Corbett) with an annealing temperature of 60° C. The expression of each gene was normalized to GAPDH gene expression. The primer sequences are listed in Table 4 (primer sequences for RT-PCR) and Table 5 (primer sequences for QPCR).

Structure (SMILES)	cardiac differentiation efficacy (in words) [1]	APA ([4]; 1 nM)	APD50 ([4]; 1 nM)	APD90 ([4]; 1 nM)	MDP ([4]; 1 nM)	dV/dT ([4]; 1 nM)	APA ([4]; 10 nM)	APD50 ([4]; 10 nM)	APD90 ([4]; 10 nM)	MDP ([4]; 10 nM)	dV/dT ([4]; 10 nM)	APA ([4]; 100 nM)	APD50 ([4]; 100 nM)	APD90 ([4]; 100 nM)	MDP ([4]; 100 nM)	dV/dT ([4]; 100 nM)	APA ([4]; 1000 nM)	APD50 ([4]; 1000 nM)	APD90 ([4]; 1000 nM)	MDP ([4]; 1000 nM)	other results
Cc1c(C)c2c(c(C)c1O)CCC(C)(C(=O)O)O2 (stereo not drawn) [trolox]	marginally improved	–	–	–	–	–	–	–	–	–	–	–	–	–	–	–	–	–	–	–	cardiac differentiation (FACS for CTNT positive cells) ([1]; added to B27-based medium with six compounds removed, VTN-NC first three days): efficiently supported cardiac differentiation
CC1=C(/C=C/C(C)=C/C=C/C(C)=C/C(=O)O)C(C)(C)CCC1 [RA, retinoic acid]	–	–	–	–	–	–	–	–	–	–	–	–	–	–	–	–	–	–	–	–	percentage of CTNT-positive cells after glucose deprivation enrichment [2]: 95.7%; percentage of CTNT-positive cells before glucose deprivation enrichment [2]: 85%; percentage of recorded APs that were atrial-like ([3]; 30-day-old cardiomyocytes, n=31): 90.3%
CC(C)NCC(O)c1ccc(O)c(O)c1 (stereo not drawn) [Isoproterenol]	–	99.9 ± 1.7%	99.1 ± 0.7%	97.3 ± 1.7%	101.2 ± 1.5%	99.9 ± 3.0%	101.7 ± 1.6%	93.0 ± 1.6%	92.0 ± 2.5%	102.8 ± 2.3%	108.1 ± 1.8%	102.1 ± 2.5%	90.7 ± 1.8%	90.8 ± 1.8%	104.8 ± 3.7%	105.6 ± 2.5%	99.0 ± 5.2%	87.0 ± 1.6 %	87.3 ± 1.6 %	101.8 ± 5.0%	dV/dT ([4]; 1000 nM): 105.3 ± 3.1%; APD90 (in words) ([4]; 1 Hz stimulation): minor reduction; effects on the parameters of AP ([4]; 1 Hz stimulation, except APD90): no significant effects
O=C1O[C@H]([C@@H](O)CO)C(O)=C1O [L-ascorbic acid]	marginally improved	–	–	–	–	–	–	–	–	–	–	–	–	–	–	–	–	–	–	–	–
COC(=O)C1=C(C)NC(C)=C(C(=O)OC)C1c1ccccc1[N+](=O)[O-] [Nifedipine]	–	96.7 ± 2.7%	92.7 ± 2.1%	94.6 ± 2.0%	99.7 ± 2.7%	90.6 ± 4.1%	96.2 ± 0.7%	70.1 ± 2.9 %	73.6±2.7%	103.5 ± 1.1%	96.4 ± 5.9%	88.3 ± 2.4%	55.3 ± 4.3 %	60.8±4.3%	100.8 ± 2.9%	86.1 ± 8.8%	73.8 ± 4.4 %	36.0 ± 3.3 %	47.1±6.1%	100.8 ± 3.1%	dV/dT ([4]; 1000 nM): 60.0 ± 11.3 %
CC(=O)C(=O)[O-].[Na+] [sodium pyruvate]	marginally improved	–	–	–	–	–	–	–	–	–	–	–	–	–	–	–	–	–	–	–	–
CC1(C)CC=C(C#Cc2ccccc2)c2cc(/C=C/c3ccc(C(=O)O)cc3)ccc21 [BMS493]	–	–	–	–	–	–	–	–	–	–	–	–	–	–	–	–	–	–	–	–	percentage of CTNT-positive cells after glucose deprivation enrichment [2]: 94.3%; percentage of CTNT-positive cells before glucose deprivation enrichment [2]: 86.3%; percentage of recorded APs that were ventricular-like [3]: 93.3%; MLC2V expression in cardiomyocytes [5]: widely expressed; expression level of ventricular-specific gene IRX4 [6]: significantly higher
Cc1cccc(CCN2CCC(C(=O)c3ccc(NS(C)(=O)=O)cc3)CC2)n1 [E-4031]	–	102.9 ± 1.1%	103.8 ± 3.8%	102.1 ± 3.1%	101.9 ± 1.2%	101.2 ± 8.0%	103.8 ± 1.5%	110.1 ± 5.4%	112.1 ± 5.0%	101.5 ± 1.7%	112.4 ± 5.5%	103.0 ± 2.3%	144.0 ± 6.7 %	169.6±13.4%	99.6 ± 2.9%	111.4 ± 9.6%	95.6 ± 4.0%	151.1 ± 7.5 %	195.6±12.3%	92.4 ± 2.8%	effects on the AP ([4]; 10 nM, 1 Hz stimulation): minor effects; dV/dT ([4]; 1000 nM): 95.6 ± 7.4%; AP duration ([4]; 1 Hz stimulation (0.1-0.3 nA), dose dependence): prolonged the AP duration in a dose-dependent manner; change in APA and dV/dt ([4]; 1 Hz stimulation, up to 1000 nM): no significant change
CC(=O)N[C@@H](CS)C(=O)O [N-acetyl-L-cysteine]	marginally improved	–	–	–	–	–	–	–	–	–	–	–	–	–	–	–	–	–	–	–	–
